This passage reports IC50 results from BindingDB's records for doi:10.1016/j.ejmech.2018.04.030 (Chungnam National University, 2018).

The assay can be described thus: Inhibition of IL-5 in mouse Y16 cells assessed as reduction in cell proliferation after 48 hrs by WST-1 assay. A general note: Tetrazolium dyes change colour on reduction, which living cells bring about.
By IC50 is commonly meant the concentration at which inhibition is half-maximal. As to `COc1ccc(COc2cccc3c2C(=O)/C(=C/c2ccccc2)C3)cc1`, the IC50 is more than 30 µM.

Regarding `O=C1c2c(cccc2OCCc2ccccc2)CC1Cc1cccc(O)c1` (stereo unspecified), the IC50 is 28 µM.

`COc1ccc(COc2cccc3c2C(=O)/C(=C/c2ccc(O)cc2)C3)cc1`: the IC50 was more than 30 µM.

Regarding `COc1ccc(/C=C2\Cc3cccc(OCc4ccc(OC)cc4)c3C2=O)cc1`, the concentration for half-maximal inhibition (IC50) was more than 30 µM.

Regarding `COc1ccc(COc2cccc3c2C(=O)/C(=C/c2ccc(Cl)cc2)C3)cc1`, the IC50 is more than 30 µM.

Take `COc1ccc(COc2cccc3c2C(=O)/C(=C/c2ccc(C)cc2)C3)cc1`: the IC50 was more than 30 µM.

On to `COCOc1ccc(/C=C2\Cc3cccc(OCC4CCCCC4)c3C2=O)cc1`, for which the IC50 is more than 30 µM.

As for `O=C1/C(=C/c2ccc(O)cc2)Cc2cccc(OCc3ccc([N+](=O)[O-])cc3)c21`, the half-maximal inhibitory concentration (IC50) was more than 30 µM.

As for `O=C1/C(=C/c2ccc(O)cc2)Cc2cccc(OCC3CCCCC3)c21`, the IC50 was more than 30 µM.

As for `O=C1/C(=C/c2ccc(O)cc2)Cc2cccc(O)c21`, the IC50 was more than 30 µM.

With `COc1ccc(/C=C2\Cc3cccc(O)c3C2=O)cc1`, the IC50 is more than 30 µM.

Regarding `O=C1/C(=C/c2ccccc2)Cc2cccc(O)c21`, the IC50 was more than 30 µM.

On to `COc1ccc(/C=C2\Cc3cccc(OCC4CCCCC4)c3C2=O)cc1`, for which the IC50 is more than 30 µM.

For `O=C1c2c(O)cccc2CC1Cc1ccc(O)cc1` (stereo unspecified), the IC50 is more than 30 µM.

As to `COc1ccc(CC2Cc3cccc(OCC4CCCCC4)c3C2=O)cc1` (stereo unspecified), the IC50 is more than 30 µM.

For `O=C1c2c(cccc2OCC2CCCCC2)CC1Cc1ccc(Cl)cc1` (stereo unspecified), the IC50 came out at 20.5 µM.

In the case of `Cc1ccc(CC2Cc3cccc(OCC4CCCCC4)c3C2=O)cc1` (stereo unspecified), the IC50 was found to be 24.5 µM.

In the case of `O=C1c2c(cccc2OCC2CCCCC2)CC1Cc1ccc(O)cc1` (stereo unspecified), the IC50 came to 4 µM.

Turning to `O=C1c2c(cccc2OCC2CCCCC2)CC1Cc1cccc(O)c1` (stereo unspecified), the IC50 worked out at 6 µM.

With `O=C1c2c(cccc2OCC2CCCCC2)CC1Cc1ccccc1O` (stereo unspecified), the IC50 was more than 30 µM.

Regarding `O=C1c2c(cccc2OCCC2CCCCC2)CC1Cc1ccc(O)cc1` (stereo unspecified), the IC50 was found to be 18 µM.

For `O=C1c2c(cccc2OCc2ccccc2)CC1Cc1ccc(O)cc1` (stereo unspecified), the IC50 stood at 21 µM.

`O=C1c2c(cccc2OCCc2ccccc2)CC1Cc1ccc(O)cc1` (stereo unspecified): the IC50 was 26 µM.

`O=C1c2c(cccc2OCCc2ccccc2)CC1Cc1ccccc1O` (stereo unspecified): the IC50 is more than 30 µM.

For the compound `O=c1c(Cc2ccc(O)cc2)coc2cccc(OCC3CCCCC3)c12`, the IC50 was determined as 5 µM.

As for `COCOc1ccc(CC2Cc3cccc(OCC4CCCCC4)c3C2=O)cc1` (stereo unspecified), the IC50 amounted to 17 µM.
